Assay results reported in patent US10613104B2, “Assay to determine anticoagulants in blood or blood plasma” (ZAFENA AB, priority 2014, dated 2020).

Key:
[1] = test system: prothrombin time (PT) of control plasma NKP; assay: 20 μL and 5 μL PT methods with reagent P161 at various added CaCl2, NKP + 500 μg/L apixaban; assay type: biochemical
Method: With each reagent three samples were analyzed by the two PT methods of the anticoagulant assay, the 20 μL-method and the 5 μL-method. Two of the samples were reference samples, the control plasmas NKP and ZAP, with established INR values of 1.00 and 2.50, respectively.

[2] = test system: prothrombin time (PT) of normal citrated blood; assay: Three wet-chemistry Owren PT methods (Simple Simon PT) on normal citrated blood with added apixaban; assay type: biochemical
Method: Experimental work was performed with the commercially available ambient room temperature coagulation instrument, Simple Simon P T Zafena A B, Linköping, Sweden, with functions described in EP 1 636 595 B2. One instrument or reader was used for each PT-method. Alternatively, the same instrument could be used for all PT-methods.
The three instruments were used together standing next to one another on a laboratory bench in thermal equilibrium with the ambient room temperature of the laboratory.
The PT-reagent was the one delivered together with lot N223M of the Simple Simon PT product, a reagent of Owren-type that thus contains effective amounts of thromboplastin, fibrinogen and FV (the thromboplastin of rabbit brain origin and the fibrinogen and the FV of bovine blood plasma origin). Other Owren type reagents could also be used.
The reagent was in portions of 200 μL to which sample, citrated blood or citrated blood plasma, was added and mixed. The addition was by an end-to-end plastic capillary mounted at one end of a tubular body with a displacement mechanism in the other end, this to allow convenient mixing of sample and reagent. Such Mixxocaps with 10 μL capillaries are supplied with the Simple Simon PT product. To perform the experiments described, some Mixxocaps were fitted with 20 μL capillaries, or 5 μL capillaries instead of the 10 μL capillaries with which they were supplied by the manufacturer.
These blood samples and a blood sample with an INR 2.3 were analyzed by Simple Simon PT using sample volumes of 20 μL, 10 μL and 5 μL in 200 μL reagents. […]

[3] = apixaban 63 μg/L in normal citrated blood
[4] = apixaban 125 μg/L in normal citrated blood
[5] = apixaban 250 μg/L in normal citrated blood
[6] = apixaban 500 μg/L in normal citrated blood
[7] = apixaban 714 μg/L in normal citrated blood
[8] = apixaban 1000 μg/L in normal citrated blood

COc1ccc(-n2nc(C(N)=O)c3c2C(=O)N(c2ccc(N4CCCCC4=O)cc2)CC3)cc1 [apixaban]
5 uL-method NKP + 500 INR5c ([1]; reagent P161, added Ca2+ 4 mM): 1.18
20 uL-method NKP + 500 INR20c ([1]; reagent P161, added Ca2+ 4 mM): 1.83
20 uL-method NKP + 500 INR20c ([1]; reagent P161, added Ca2+ 8 mM): 2.15
20 uL-method NKP + 500 INR20c ([1]; reagent P161, added Ca2+ 16 mM): 3.15
20 uL-method NKP + 500 INR20c ([1]; reagent P161, added Ca2+ 24 mM): 3.30
5 uL-method NKP + 500 INR5c ([1]; reagent P161, added Ca2+ 32 mM): 1.49
20 uL-method NKP + 500 INR20c ([1]; reagent P161, added Ca2+ 32 mM): 3.38
INR 10 μL sample [2, 3]: 1.19
INR 20 μL sample [2, 3]: 1.41
INRc 5 μL sample [2, 3]: 1.06
INRc 10 μL sample [2, 3]: 1.12
INRc 20 μL sample [2, 3]: 1.21
INRo [2, 3]: 0.96
ΔINRc 10 μL − 5 μL [2, 3]: 0.06
ΔINRc 20 μL − 5 μL [2, 3]: 0.15
INR 10 μL sample [2, 4]: 1.32
INR 20 μL sample [2, 4]: 1.75
INRc 5 μL sample [2, 4]: 1.16
INRc 10 μL sample [2, 4]: 1.26
INRc 20 μL sample [2, 4]: 1.49
INRo [2, 4]: 1.02
ΔINRc 10 μL − 5 μL [2, 4]: 0.10
ΔINRc 20 μL − 5 μL [2, 4]: 0.32
INR 5 μL sample [2, 5]: 1.32
INR 10 μL sample [2, 5]: 1.64
INR 20 μL sample [2, 5]: 2.61
INRc 5 μL sample [2, 5]: 1.39
INRc 10 μL sample [2, 5]: 1.60
INRc 20 μL sample [2, 5]: 2.18
INRo [2, 5]: 1.07
ΔINRc 10 μL − 5 μL [2, 5]: 0.21
ΔINRc 20 μL − 5 μL [2, 5]: 0.79
INR 5 μL sample [2, 6]: 1.66
INR 10 μL sample [2, 6]: 2.27
INR 20 μL sample [2, 6]: 4.58
INRc 5 μL sample [2, 6]: 1.81
INRc 10 μL sample [2, 6]: 2.29
INRc 20 μL sample [2, 6]: 3.73
INRo [2, 6]: 1.09
ΔINRc 10 μL − 5 μL [2, 6]: 0.48
ΔINRc 20 μL − 5 μL [2, 6]: 1.92
INR 5 μL sample [2, 7]: 1.87
INR 10 μL sample [2, 7]: 2.78
INR 20 μL sample [2, 7]: 6.06
INRc 5 μL sample [2, 7]: 2.08
INRc 10 μL sample [2, 7]: 2.86
INRc 20 μL sample [2, 7]: 4.88
INRo [2, 7]: 0.91
ΔINRc 10 μL − 5 μL [2, 7]: 0.78
ΔINRc 20 μL − 5 μL [2, 7]: 2.80
INR 10 μL sample [2, 8]: 3.50
INR 20 μL sample [2, 8]: 8.76
INRc 5 μL sample [2, 8]: 2.51
INRc 10 μL sample [2, 8]: 3.69
INRc 20 μL sample [2, 8]: 6.94
INRo [2, 8]: 0.74
ΔINRc 10 μL − 5 μL [2, 8]: 1.16
ΔINRc 20 μL − 5 μL [2, 8]: 4.43
